# Experimental data published in ChEMBL document CHEMBL3885881, “DrugMatrix”.
# Species: Rattus norvegicus
# Experiment: DrugMatrix - Regimen: Daily Repeat
# Assay type: toxicity, organism-based, Sprague-Dawley
# Parameters: regimen Daily Repeat, gender Male, age 6-8 weeks
# Details: in vivo, po, route oral GAVAGE, vehicle 100 % WATER; for ABSOLUTE BASOPHIL / ABSOLUTE EOSINOPHIL / ABSOLUTE LYMPHOCYTE / ABSOLUTE MONOCYTE / ABSOLUTE SEGMENTED NEUTROPHIL / BASOPHIL / EOSINOPHIL / ERYTHROCYTE COUNT / HEMATOCRIT / HEMOGLOBIN / LEUKOCYTE COUNT / LYMPHOCYTE / MEAN CORPUSCULAR HEMOGLOBIN / MEAN CORPUSCULAR HEMOGLOBIN CONCENTRATION / MEAN CORPUSCULAR VOLUME / MONOCYTE / NEUTROPHIL / NUCLEATED RED BLOOD CELLS / PLATELET COUNT: tissue Blood; for ALANINE AMINOTRANSFERASE / ALBUMIN / ALKALINE PHOSPHATASE / ASPARTATE AMINOTRANSFERASE / BLOOD UREA NITROGEN / CARBON DIOXIDE / CHLORIDE / CHOLESTEROL / CREATINE PHOSPHOKINASE / CREATININE / GLUCOSE / LACTATE DEHYDROGENASE / LIPASE / PHOSPHORUS / POTASSIUM / SODIUM / TOTAL BILIRUBIN / TOTAL PROTEIN / URIC ACID: tissue Plasma
# [1] = 0 mg/kg, 72 h, dose level Control, time 3 day
# [2] = 0 mg/kg, 120 h, dose level Control, time 5 day
# [3] = 300 mg/kg, 72 h, dose level Low, time 3 day
structure (smiles),measurement,setting,value
CC(Cl)(Cl)Cl [TRICHLOROETHANE],ABSOLUTE BASOPHIL,[1],0 CELLS/uL
same,ABSOLUTE EOSINOPHIL,[1],86.33 CELLS/uL
same,ABSOLUTE LYMPHOCYTE,[1],12090.17 CELLS/uL
same,ABSOLUTE MONOCYTE,[1],166.67 CELLS/uL
same,ABSOLUTE SEGMENTED NEUTROPHIL,[1],1090.17 CELLS/uL
same,BASOPHIL,[1],0%
same,EOSINOPHIL,[1],0.67%
same,ERYTHROCYTE COUNT,[1],5.57 x10E6/uL
same,HEMATOCRIT,[1],35.33%
same,HEMOGLOBIN,[1],13.83 G/DL
same,LEUKOCYTE COUNT,[1],13.43 x10E3/uL
same,LYMPHOCYTE,[1],89.83%
same,MEAN CORPUSCULAR HEMOGLOBIN,[1],24.88 pg
same,MEAN CORPUSCULAR HEMOGLOBIN CONCENTRATION,[1],39.15 G/DL
same,MEAN CORPUSCULAR VOLUME,[1],63.52 fL
same,MONOCYTE,[1],1.17%
same,NEUTROPHIL,[1],8.33%
same,NUCLEATED RED BLOOD CELLS,[1],0 /100WBC
same,PLATELET COUNT,[1],1181.33 x10E3/uL
same,ALANINE AMINOTRANSFERASE,[1],48.33 u/L
same,ALBUMIN,[1],4.1 G/DL
same,ALKALINE PHOSPHATASE,[1],395 u/L
same,ASPARTATE AMINOTRANSFERASE,[1],81.83 u/L
same,BLOOD UREA NITROGEN,[1],15.83 mg/dL
same,CARBON DIOXIDE,[1],24.17 mmol/L
same,CHLORIDE,[1],103.83 MEQ/L
same,CHOLESTEROL,[1],63.67 mg/dL
same,CREATINE PHOSPHOKINASE,[1],372.83 u/L
same,CREATININE,[1],0.18 mg/dL
same,GLUCOSE,[1],173.83 mg/dL
same,LACTATE DEHYDROGENASE,[1],188.33 u/L
same,LIPASE,[1],9.5 u/L
same,PHOSPHORUS,[1],11.95 mg/dL
same,POTASSIUM,[1],5.99 MEQ/L
same,SODIUM,[1],144.43 MEQ/L
same,TOTAL BILIRUBIN,[1],0.15 mg/dL
same,TOTAL PROTEIN,[1],5.95 G/DL
same,URIC ACID,[1],1.82 mg/dL
same,ABSOLUTE BASOPHIL,[2],0 CELLS/uL
same,ABSOLUTE EOSINOPHIL,[2],26.67 CELLS/uL
same,ABSOLUTE LYMPHOCYTE,[2],7583.83 CELLS/uL
same,ABSOLUTE MONOCYTE,[2],131.33 CELLS/uL
same,ABSOLUTE SEGMENTED NEUTROPHIL,[2],674.83 CELLS/uL
same,BASOPHIL,[2],0%
same,EOSINOPHIL,[2],0.33%
same,ERYTHROCYTE COUNT,[2],5.78 x10E6/uL
same,HEMATOCRIT,[2],36.48%
same,HEMOGLOBIN,[2],14.03 G/DL
same,LEUKOCYTE COUNT,[2],8.42 x10E3/uL
same,LYMPHOCYTE,[2],89.83%
same,MEAN CORPUSCULAR HEMOGLOBIN,[2],24.3 pg
same,MEAN CORPUSCULAR HEMOGLOBIN CONCENTRATION,[2],38.52 G/DL
same,MEAN CORPUSCULAR VOLUME,[2],63.15 fL
same,MONOCYTE,[2],1.67%
same,NEUTROPHIL,[2],8.17%
same,NUCLEATED RED BLOOD CELLS,[2],0 /100WBC
same,PLATELET COUNT,[2],1186.67 x10E3/uL
same,ALANINE AMINOTRANSFERASE,[2],50.17 u/L
same,ALBUMIN,[2],4.07 G/DL
same,ALKALINE PHOSPHATASE,[2],367.5 u/L
same,ASPARTATE AMINOTRANSFERASE,[2],81.67 u/L
same,BLOOD UREA NITROGEN,[2],16.17 mg/dL
same,CARBON DIOXIDE,[2],32.33 mmol/L
same,CHLORIDE,[2],101.5 MEQ/L
same,CHOLESTEROL,[2],65.33 mg/dL
same,CREATINE PHOSPHOKINASE,[2],255.33 u/L
same,CREATININE,[2],0.17 mg/dL
same,GLUCOSE,[2],139.33 mg/dL
same,LACTATE DEHYDROGENASE,[2],95 u/L
same,LIPASE,[2],10.5 u/L
same,PHOSPHORUS,[2],10.38 mg/dL
same,POTASSIUM,[2],6.11 MEQ/L
same,SODIUM,[2],145.55 MEQ/L
same,TOTAL BILIRUBIN,[2],0.17 mg/dL
same,TOTAL PROTEIN,[2],5.98 G/DL
same,URIC ACID,[2],0.93 mg/dL
same,ABSOLUTE BASOPHIL,[3],0 CELLS/uL
same,ABSOLUTE EOSINOPHIL,[3],37 CELLS/uL
same,ABSOLUTE LYMPHOCYTE,[3],13276 CELLS/uL
same,ABSOLUTE MONOCYTE,[3],236.33 CELLS/uL
same,ABSOLUTE SEGMENTED NEUTROPHIL,[3],1084 CELLS/uL
same,BASOPHIL,[3],0%
same,EOSINOPHIL,[3],0.33%
same,ERYTHROCYTE COUNT,[3],5.75 x10E6/uL
same,HEMATOCRIT,[3],37.23%
same,HEMOGLOBIN,[3],14.1 G/DL
same,LEUKOCYTE COUNT,[3],14.63 x10E3/uL
same,LYMPHOCYTE,[3],90.67%
same,MEAN CORPUSCULAR HEMOGLOBIN,[3],24.53 pg
same,MEAN CORPUSCULAR HEMOGLOBIN CONCENTRATION,[3],37.87 G/DL
same,MEAN CORPUSCULAR VOLUME,[3],64.8 fL
same,MONOCYTE,[3],1.67%
same,NEUTROPHIL,[3],7.33%
same,NUCLEATED RED BLOOD CELLS,[3],0 /100WBC
same,PLATELET COUNT,[3],1274 x10E3/uL
same,ALANINE AMINOTRANSFERASE,[3],52 u/L
same,ALBUMIN,[3],4 G/DL
same,ALKALINE PHOSPHATASE,[3],352.67 u/L
same,ASPARTATE AMINOTRANSFERASE,[3],88.67 u/L
same,BLOOD UREA NITROGEN,[3],16 mg/dL
same,CARBON DIOXIDE,[3],24.67 mmol/L
same,CHLORIDE,[3],102.33 MEQ/L
same,CHOLESTEROL,[3],72 mg/dL
same,CREATINE PHOSPHOKINASE,[3],1076 u/L
same,CREATININE,[3],0.13 mg/dL
same,GLUCOSE,[3],161 mg/dL
same,LACTATE DEHYDROGENASE,[3],188.67 u/L
same,LIPASE,[3],9 u/L
same,PHOSPHORUS,[3],13.77 mg/dL
same,POTASSIUM,[3],6.88 MEQ/L
same,SODIUM,[3],144.3 MEQ/L
same,TOTAL BILIRUBIN,[3],0.2 mg/dL
same,TOTAL PROTEIN,[3],5.83 G/DL
same,URIC ACID,[3],1.93 mg/dL
